Source: paper PMC12226413, “Downregulation of O‐GlcNAcylation enhances etoposide‐induced p53‐mediated apoptosis in HepG2 human liver cancer cells” (FEBS Open Bio, 2025)
pIC50: −log10 of the molar value.

Experiments:
[1] = target: T1, Recombinant human OGT protein (O-GlcNAc transferase) (Homo sapiens, UniProt O15294); experiment: UDP-Glo glycosyltransferase assay (luminescence); assay type: biochemical
T1 construct: recombinant human OGT from R&D Systems
T1 sequence (O15294 2-1046): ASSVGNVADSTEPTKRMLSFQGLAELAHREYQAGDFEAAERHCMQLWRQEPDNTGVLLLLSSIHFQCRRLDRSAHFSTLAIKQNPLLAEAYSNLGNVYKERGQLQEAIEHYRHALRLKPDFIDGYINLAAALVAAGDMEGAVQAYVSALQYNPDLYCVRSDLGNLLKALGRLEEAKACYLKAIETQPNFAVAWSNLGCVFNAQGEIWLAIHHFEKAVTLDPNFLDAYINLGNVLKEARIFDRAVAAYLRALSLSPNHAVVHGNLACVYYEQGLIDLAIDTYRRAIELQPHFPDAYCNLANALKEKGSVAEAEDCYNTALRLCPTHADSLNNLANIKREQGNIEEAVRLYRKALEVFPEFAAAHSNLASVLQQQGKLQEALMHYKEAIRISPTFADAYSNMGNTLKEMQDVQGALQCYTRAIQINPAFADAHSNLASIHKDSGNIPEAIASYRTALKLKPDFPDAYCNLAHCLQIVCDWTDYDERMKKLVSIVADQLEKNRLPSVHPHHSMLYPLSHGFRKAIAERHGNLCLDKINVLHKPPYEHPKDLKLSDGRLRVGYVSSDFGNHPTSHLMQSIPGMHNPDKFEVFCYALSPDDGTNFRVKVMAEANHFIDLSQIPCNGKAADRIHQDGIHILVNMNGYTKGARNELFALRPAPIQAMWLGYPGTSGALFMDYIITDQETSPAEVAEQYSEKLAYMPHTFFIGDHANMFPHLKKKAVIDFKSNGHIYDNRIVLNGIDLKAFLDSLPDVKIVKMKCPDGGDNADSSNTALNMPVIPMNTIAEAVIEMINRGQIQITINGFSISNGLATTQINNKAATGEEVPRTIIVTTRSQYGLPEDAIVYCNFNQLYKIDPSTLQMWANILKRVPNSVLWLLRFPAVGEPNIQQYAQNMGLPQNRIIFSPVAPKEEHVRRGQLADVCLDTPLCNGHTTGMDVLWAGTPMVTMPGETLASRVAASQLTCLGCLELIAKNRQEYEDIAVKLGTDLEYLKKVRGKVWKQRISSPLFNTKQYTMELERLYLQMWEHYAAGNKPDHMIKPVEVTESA

[2] = target: T1, Recombinant human OGT protein (O-GlcNAc transferase); experiment: UDP-Glo glycosyltransferase assay (luminescence); assay type: biochemical; settings: UDP-GlcNAc and peptide KKKYPGGSTPVSSANMM as substrates; 25 mM Tris pH 7.5, 12.5 mM MgCl2, 0.06 mg/mL BSA, 1 mM DTT; unreliable

COc1ccccc1[C@@H](NS(=O)(=O)c1ccc2[nH]c(=O)ccc2c1)C(=O)N(Cc1ccco1)Cc1cccs1 [OSMI-1]
pIC50 [1]: 5.35

COc1cc([C@@H]2c3cc4c(cc3[C@@H](O[C@@H]3O[C@@H]5CO[C@@H](C)O[C@H]5[C@H](O)[C@H]3O)[C@H]3COC(=O)[C@H]23)OCO4)cc(OC)c1O [Etoposide]
% inhibition at 400 μM [2]: ~ 47.3%
